The values that follow come from patent publication US9725462B2, “Pyridopyrimidine derivatives as protein kinase inhibitors” (Merck Patent GmbH, priority 2012, dated 2017).

Some results are limits rather than exact numbers.

For this test, the target named is T1, SYK (Homo sapiens, UniProt P43405).
T1 construct: 2.5 nM SYK, 400 nM Biotin-Aha-Aha-KEDPDYEWPSAKK
As to the kind of experiment: SYK Flash Plate Assay (enzyme assay). Type of test: biochemical. To be noted: Syk inhibition. The source says: The following abbreviations refer respectively to the definitions below: • aq (aqueous), h (hour), g (gram), L (liter), mg (milligram), MHz (Megahertz), min. (minute), mm (millimeter), mmol (millimole), mM (millimolar), m.p. (melting point), eq (equivalent), mL (milliliter), L (microliter), ACN (acetonitrile), AcOH (acetic acid), CDCl3 (deuterated chloroform), CD3OD (deuterated methanol), CH3CN (acetonitrile), c-hex (cyclohexane), DCC (dicyclohexyl carbodiimide), DCM (dichloromethane), DIC (diisopropyl carbodiimide), DIEA (diisopropylethyl-amine), DMF (dimethylformamide), DMSO (dimethylsulfoxide), DMSO-d6 (deuterated dimethylsulfoxide), EDC (1-(3-dimethyl-amino-propyl)-3-ethylcarbodiimide), ESI (Electro-spray ionization), EtOAc (ethyl acetate), Et2O (diethyl ether), EtOH (ethanol), HATU (dimethylamino-([1,2,3]triazolo[4,5-b]pyridin-3-yloxy)-methylene]-dimethyl-ammonium hexafluorophosphate), HPLC (High Performance Liquid Chromatography), i-PrOH (2-propanol), K2CO3 (potassium carbonate), LC (Liquid Chromatography), MeOH (methanol), MgSO4 (magnesium sulfate), MS (mass spectrometry), MTBE (Methyl tert-butyl ether), NaHCO3 (sodium bicarbonate), NaBH4 (sodium borohydride), NMM (N-methyl morpholine), NMR (Nuclear Magnetic Resonance), PyBOP (benzotriazole-1-yl-oxy-tris-pyrrolidino-phosphonium hexafluorophosphate), RT (room temperature), Rt (retention time), SPE (solid phase extraction), TBTU (2-(1-H-benzotriazole-1-yl)-1,1,3,3-tetramethyluromium tetrafluoro borate), TEA (triethylamine), TFA (trifluoroacetic acid), THF (tetrahydrofuran), TLC (Thin Layer Chromatography), UV (Ultraviolet). Description of the In Vitro Assays SYK Flash Plate Assay
The kinase assay is performed either as 384-well Flashplate assay (for e.g. Topcount measurement) or as 384-well Image-Flashplate assay (for LEADseeker measurement).
2.5 nM SYK, 400 nM Biotin-Aha-Aha-KEDPDYEWPSAKK
and 10 μM ATP (spiked with 0.3 μCi 33P-ATP/well) are incubated in a total volume of 50 μl (60 mM Hepes, 10 mM MgCl2, 1.2 mM Dithiothreitol, 0.02% Brij35, 0.1% BSA, pH 7.5) with or without test compound for 1 hours at 30° C. The reaction is stopped with 25 μl 200 mM EDTA. After 30 Min at 30° C. the liquid is removed and each well washed thrice with 100 μl 0.9% sodium chloride solution. Non-specific reaction is determined in presence of 0.1 μM Staurosporine. Radioactivity is measured with Topcount (when using Flashplates) or with LEADseeker (when using Image-Flashplates) respectively. Results (e.g. IC50-values) are calculated with program tools provided by the IT-department (e.g. Symyx Assay Explorer, Genedata Screener). In Vivo Assays CIA

A word on the IC50: it is the midpoint of a concentration-inhibition curve. Low values mean higher potency, high ones lower potency. As for `Nc1ncc(-c2ccccc2)c2nc(N[C@@H]3CCCC[C@@H]3N)ncc12` [Compound A17, N2-((1R,2S)-2-Amino-cyclohexyl)-8-phenyl-pyrido[4,3-d]-pyrimidine-2,5-diamine], the IC50 fell in the range of 100 to 1000 nM. Next, `CC(C)Cn1cc(-c2cnc(N)c3cnc(N[C@H]4CCCC[C@H]4N)nc23)cn1` (relative stereo) [Compound A8, N2-(cis-2-Amino-cyclohexyl)-8-(1-isobutyl-1H-pyrazol-4-yl)-pyrido[4,3-d]pyrimidine-2,5-diamine]: 100 to 1000 nM. Next, `N[C@@H]1CCCC[C@@H]1Nc1ncc2cncc(-c3c[nH]c4ccc(F)cc34)c2n1` (stereo in doubt) [Compound A46, (1S,2R)-N-[8-(5-Fluoro-1H-indol-3-yl)-pyrido[4,3-d]pyrimidin-2-yl]-cyclohexane-1,2-diamine]: less than 100 nM; `NC1CCOCC1Nc1ncc2cncc(-c3c[nH]c4cc(C(F)(F)F)ccc34)c2n1` (stereo not drawn) [Compound A49, cis-N3-[8-[6-(trifluoromethyl)-1H-indol-3-yl]pyrido[4,3-d]pyrimidin-2-yl]tetrahydropyran-3,4-diamine]: less than 100 nM. To `Cc1cccc(-c2cnc(N)c3cnc(N[C@@H]4CCCC[C@@H]4N)nc23)c1` (single isomer, unassigned) [Compound A22, N2-((cis)-2-Amino-cyclohexyl)-8-m-tolyl-pyrido[4,3-d]pyrimidine-2,5-diamine] belongs less than 100 nM; to `CC(C)C[C@@H](Nc1ncc2cncc(-c3c[nH]c4cc(C#N)ccc34)c2n1)C(N)=O` [Compound A65, (R)-2-[8-(6-Cyano-1H-indol-3-yl)-pyrido[4,3-d]pyrimidin-2-yl-amino]-4-methyl-pentanoic acid amide], less than 100 nM. `Cc1cccc2[nH]c(-c3cncc4cnc(N[C@H]5CCCC[C@H]5N)nc34)cc12` (stereo in doubt) [Compound A66, (1S,2R)-N-[8-(4-Methyl-1H-indol-2-yl)-pyrido[4,3-d]pyrimidin-2-yl]-cyclohexane-1,2-diamine] registered an IC50 of 1000 to 50000 nM. Next, `N[C@H]1CCCC[C@H]1Nc1ncc2cncc(-c3ccc4[nH]cnc4c3)c2n1` [Compound A36]: 1000 to 50000 nM.

`Cc1cccc(-c2cnc(N)c3cnc(N[C@H]4CCCC[C@H]4N)nc23)c1` (single isomer, unassigned) [Compound A21, N2-((cis)-2-Amino-cyclohexyl)-8-m-tolyl-pyrido[4,3-d]pyrimidine-2,5-diamine]: the IC50 fell in the range of 1000 to 50000 nM. Next, `N[C@@H]1CCCC[C@@H]1Nc1ncc2cncc(-c3cc4n(n3)CCCC4)c2n1` (stereo in doubt) [Compound A33, (1S,2R)-N-[8-(4,5,6,7-Tetrahydro-pyrazolo[1,5-a]pyridin-2-yl)-pyrido[4,3-d]pyrimidin-2-yl]-cyclohexane-1,2-diamine]: 1000 to 50000 nM; `Nc1ncc(-c2c[nH]c3ccccc23)c2nc(N[C@H]3CCCC[C@H]3N)ncc12` (relative stereo) [Compound A24, N2-(cis-2-Amino-cyclohexyl)-8-(1H-indol-3-yl)-pyrido[4,3-d]pyrimidine-2,5-diamine]: less than 100 nM; `CC(C)n1cc(-c2cncc3cnc(N[C@@H]4CCCC[C@@H]4N)nc23)cn1` [Compound A26, (1S,2R)-[8-(1-Isopropyl-1H-pyrazol-4-yl)-pyrido[4,3-d]pyrimidin-2-yl]-cyclohexane-1,2-diamine]: 1000 to 50000 nM. Next, `N[C@@H]1CCCC[C@@H]1Nc1ncc2cncc(-c3c[nH]c4ccccc34)c2n1` (stereo in doubt) [Compound A27, (1S,2R)-N-[8-(1H-Indol-3-yl)-pyrido[4,3-d]pyrimidin-2-yl]-cyclohexane-1,2-diamine]: less than 100 nM. Next, `N#Cc1ccc2[nH]cc(-c3cncc4cnc(N[C@@H]5CCCC[C@@H]5N)nc34)c2c1` [Compound A44, 3-[2-((1 R,2S)-2-Amino-cyclohexylamino)-pyrido[4,3-d]pyrimidin-8-yl]-1H-indole-5-carbonitrile]: 100 to 1000 nM; `COC[C@H](N)CNc1ncc2cncc(-c3cccc(C)c3)c2n1` [Compound A30, (R)-3-Methoxy-N1-(8-m-tolyl-pyrido[4,3-d]pyrimidin-2-yl)-propane-1,2-diamine]: 1000 to 50000 nM. `Cn1cc(-c2cnc(N)c3cnc(N4CCC(CO)CC4)nc23)cn1` [Compound A5, {1-[5-Amino-8-(1-methyl-1H-pyrazol-4-yl)-pyrido[4,3-d]pyrimidin-2-yl]-piperidin-4-yl}-methanol]: the IC50 lay within 1000 to 50000 nM.
